Assay results as given in publication PMC8533333, “Melatonin Analogues Potently Inhibit MAO-B and Protect PC12 Cells against Oxidative Stress” (Antioxidants, 2021).

How the values were obtained:
[1] = molecular target: T1, Human recombinant MAO-B (hMAO-B) (Homo sapiens, UniProt P27338); experiment: MAO-B enzyme assay (Amplex Red, resorufin fluorescence); format: biochemical; settings: for inhibition at 10 µM: single dose 10 µM; for Selectivity Index (SI): IC50 (MAO-A)/IC50 (MAO-B); for IC50: five doses 10-0.001 µM, triplicate
T1 construct: purchased Sigma Aldrich; host or cells: insect cells
T1 sequence (P27338 1-520): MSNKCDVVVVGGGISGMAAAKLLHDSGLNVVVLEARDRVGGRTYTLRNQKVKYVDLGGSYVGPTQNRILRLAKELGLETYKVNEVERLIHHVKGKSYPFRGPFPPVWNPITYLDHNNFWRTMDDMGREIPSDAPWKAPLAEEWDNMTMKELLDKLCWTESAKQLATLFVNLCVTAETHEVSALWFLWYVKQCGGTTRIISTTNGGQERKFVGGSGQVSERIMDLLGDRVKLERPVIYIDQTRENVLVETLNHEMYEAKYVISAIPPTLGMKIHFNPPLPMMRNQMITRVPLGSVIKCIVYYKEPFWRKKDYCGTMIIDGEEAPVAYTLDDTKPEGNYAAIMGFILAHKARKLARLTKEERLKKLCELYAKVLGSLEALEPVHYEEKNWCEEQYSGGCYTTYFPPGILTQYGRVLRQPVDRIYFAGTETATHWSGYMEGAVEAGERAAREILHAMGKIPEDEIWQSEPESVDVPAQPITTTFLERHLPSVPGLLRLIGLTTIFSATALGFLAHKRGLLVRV
Experimental: (§1) Biological evaluation of the synthesized melatonin derivatives over both MAO-A and MAO-B was performed as reported previously. A detailed description of the protocol is in the Supplementary Materials.
First, the synthesized melatonin analogues (3a–x) were biologically evaluated over an MAO-B recombinant enzyme. The experiment was performed using Amplex® Red reagent technology. This technology offers quantitative enzyme activity sensitive detection, a wider dynamic range, and fluorescence emission outside the range of compound autofluorescence (if any). The Amplex® Red reagent is a colorless substrate that reacts with H2O2 in a 1:1 stoichiometry to produce a highly fluorescent resorufin; therefore, the induced inhibitory effects of the melatonin analogues over MAO-B were examined via spectrophotometry where the fluorescence rate of resorufin dye formation was measured.
Accordingly, compounds 3n, 3r, and 3u–w were further tested to determine their IC50 values over MAO-B in triplicate from the dose–response inhibition curves using Sigma-Plot software 13.0.
(§2) 6. Materials and methods of monoamine oxidase (MAO) enzyme assay
The inhibitory activity of MAO-A, B enzyme of the compounds was evaluated based on previously described method. The MAO activity was measured in relative fluorescence units (RFU) evoked by peroxidase-catalyzed oxidation of Amplex Red® to resorufin, in which H2O2 generated by MAO reaction was used as the […]. Human recombinant MAO-A (hMAO-A) and MAO-B (hMAO-B) enzyme expressed in insect cells were obtained from Sigma Aldrich. The 2 μL of test compound in DMSO (final concentration: 1 nM – 10 μM) was treated with 98 μL of hMAO enzyme solution in 50 mM sodium phosphate buffer (pH 7.4, final protein amounts: ~1.25 μg protein/well for MAO-A and ~2.5 μg protein/well for MAO -B) on 96-well black plate and incubated for 15 min at 37 °C. Then 100 μL of reaction working solution which is mixed solution of 400 μM Amplex Red® (Cayman, final concentration: 200 μM), 2 U/mL horseradish peroxidase ( Sigma-Aldrich, final concentration: 1 U/mL) and 2 mM substrate ( p-tyramine for MAO -A, benzylamine for MAO -B, Sigma-Aldrich, final concentration: 1 mM) in 50 mM sodium phosphate buffer (pH 7.4) were added and incubated for 20 min at 37 °C in the dark. The fluorescent intensity was quantified using a microplate reader (SpectraMax®i3, Molecular Device) with an excitation at 545 nm and an emission at 590 nm. The 50% inhibitory concentrations (IC50) of compounds were determined as the mean ± S.E.M. in triplicate from the dose-response inhibition curves using SigmaPlot® 13.0. […]

[2] = molecular target: T2, Human recombinant MAO-A (hMAO-A) (Homo sapiens, UniProt P21397); experiment: MAO-A enzyme assay (Amplex Red), selectivity; format: biochemical
T2 construct: purchased Sigma Aldrich; host or cells: insect cells
T2 sequence (P21397 1-527): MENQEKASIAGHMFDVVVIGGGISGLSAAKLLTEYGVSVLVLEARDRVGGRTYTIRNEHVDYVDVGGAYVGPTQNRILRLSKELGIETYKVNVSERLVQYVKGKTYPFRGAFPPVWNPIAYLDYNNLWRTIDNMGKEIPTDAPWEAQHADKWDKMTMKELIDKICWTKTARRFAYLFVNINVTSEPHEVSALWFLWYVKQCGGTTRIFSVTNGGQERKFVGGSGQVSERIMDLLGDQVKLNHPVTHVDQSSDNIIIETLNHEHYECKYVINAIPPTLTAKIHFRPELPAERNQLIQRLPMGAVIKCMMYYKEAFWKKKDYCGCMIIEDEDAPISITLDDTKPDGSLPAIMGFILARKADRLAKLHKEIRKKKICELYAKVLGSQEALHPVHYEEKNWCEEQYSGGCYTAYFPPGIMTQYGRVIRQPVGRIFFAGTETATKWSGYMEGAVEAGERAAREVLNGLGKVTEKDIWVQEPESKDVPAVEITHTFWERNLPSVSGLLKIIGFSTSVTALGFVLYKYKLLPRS
Experimental: as §1, §2
The inhibitory activity of MAO-A, B enzyme of the compounds was evaluated based on previously described method. The MAO activity was measured in relative fluorescence units (RFU) evoked by peroxidase-catalyzed oxidation of Amplex Red® to resorufin, in which H2O2 generated by MAO reaction was used as the […]. Human recombinant MAO-A (hMAO-A) and MAO-B (hMAO-B) enzyme expressed in insect cells were obtained from Sigma Aldrich. The 2 μL of test compound in DMSO (final concentration: 1 nM – 10 μM) was treated with 98 μL of hMAO enzyme solution in 50 mM sodium phosphate buffer (pH 7.4, final protein amounts: ~1.25 μg protein/well for MAO-A and ~2.5 μg protein/well for MAO -B) on 96-well black plate and incubated for 15 min at 37 °C. Then 100 μL of reaction working solution which is mixed solution of 400 μM Amplex Red® (Cayman, final concentration: 200 μM), 2 U/mL horseradish peroxidase ( Sigma-Aldrich, final concentration: 1 U/mL) and 2 mM substrate ( p-tyramine for MAO -A, benzylamine for MAO -B, Sigma-Aldrich, final concentration: 1 mM) in 50 mM sodium phosphate buffer (pH 7.4) were added and incubated for 20 min at 37 °C in the dark. The fluorescent intensity was quantified using a microplate reader (SpectraMax®i3, Molecular Device) with an excitation at 545 nm and an emission at 590 nm. The 50% inhibitory concentrations (IC50) of compounds were determined as the mean ± S.E.M. in triplicate from the dose-response inhibition curves using SigmaPlot® 13.0.
monoamine oxidase inhibitors. Bioorganic & medicinal chemistry 2015, 23, 6486-6496,

MAO-B = system: MAO-B; set-up: method as in PMID 32752896; settings: cited from earlier work

| Structure (SMILES) | melting point | inhibition at 10 µM [1] | also measured |
| --- | --- | --- | --- |
| O=C(Nc1ccc2[nH]ccc2c1)c1ccc(Cl)cc1Cl [3d, 2,4-Dichloro-N-(1H-indol-5-yl)benzamide] | 161 to 162 °C | 22.9 ± 0.7% | – |
| O=C(Nc1ccc2[nH]ccc2c1)c1ccc(F)cc1 [3j, 4-Fluoro-N-(1H-indol-5-yl)benzamide] | – | 58.3 ± 1.02% | – |
| O=C(Nc1ccc2[nH]ccc2c1)c1ccccc1Cl [3o, 2-Chloro-N-(1H-indol-5-yl)benzamide] | – | 2.39 ± 0.31% | – |
| O=C(Nc1ccc2[nH]ccc2c1)c1ccc(F)cc1C(F)(F)F [3l, 4-Fluoro-N-(1H-indol-5-yl)-2-(trifluoromethyl)benzamide] | 153 to 154 °C | 1.49 ± 0.26% | – |
| O=C(Nc1ccc2[nH]ccc2c1)c1cc([N+](=O)[O-])cc([N+](=O)[O-])c1 [3e, N-(1H-indol-5-yl)-3,5-dinitrobenzamide] | – | 2.75 ± 0.2% | – |
| O=C(Nc1ccc2[nH]ccc2c1)c1c(F)cccc1F [3h, 2,6-Difluoro-N-(1H-indol-5-yl)benzamide] | 236 to 237 °C | -0.02 ± 0.26% | – |
| O=C(Nc1ccc2[nH]ccc2c1)c1cccc([N+](=O)[O-])c1 [3f, N-(1H-indol-5-yl)-3-nitrobenzamide] | 214 to 215 °C | 54.25 ± 0.37% | – |
| N#Cc1cccc(C(=O)Nc2ccc3[nH]ccc3c2)c1 [3m, 3-Cyano-N-(1H-indol-5-yl)benzamide] | 188 to 189 °C | 8.33 ± 0.59% | – |
| O=C(Nc1ccc2[nH]ccc2c1)c1ccc(Br)cc1 [3c, 4-Bromo-N-(1H-indol-5-yl)benzamide] | 209 to 210 °C | 37.1 ± 0.7% | – |
| C#CCN[C@@H]1CCc2ccccc21 [rasagiline, reference compound] | – | – | Selectivity Index (SI) [1]: > 50 |
| O=C(Nc1ccc2[nH]ccc2c1)c1ccccc1 [3a, N-(1H-indol-5-yl)benzamide] | – | 14.9 ± 0.8% | – |
| O=C(Nc1ccc2c(ccn2C(=O)c2cccc(F)c2)c1)c1cnccn1 [N-(1-(3-fluorobenzoyl)-1H-indol-5-yl)pyrazine-2-carboxamide] | – | – | IC50 (MAO-B): 0.78 µM; Ki (MAO-B; competitive): 0.0945 µM |
| O=C(Nc1ccc2[nH]ccc2c1)c1cccc(F)c1 [3i, 3-Fluoro-N-(1H-indol-5-yl)benzamide] | 166 to 168 °C | 35.3 ± 0.76% | – |
| O=C(Nc1ccc2[nH]ccc2c1)c1ccc([N+](=O)[O-])cc1 [3g, N-(1H-indol-5-yl)-4-nitrobenzamide] | 262 to 264 °C | 61 ± 0.69% | – |
| O=C(Nc1ccc2[nH]ccc2c1)c1ccccc1F [3k, 2-Fluoro-N-(1H-indol-5-yl)benzamide] | 179 to 181 °C | 37.86 ± 0.33% | – |
| O=C(Nc1ccc2[nH]ccc2c1)c1ccccc1Br [3b, 2-Bromo-N-(1H-indol-5-yl)benzamide] | 231 to 233 °C | 0.27 ± 0.81% | – |

The next lines start with results.

| melting point | inhibition at 10 µM [1] | Structure (SMILES) | also measured |
| --- | --- | --- | --- |
| 221 to 223 °C | 0.89 ± 0.31% | O=C(Nc1ccc2[nH]ccc2c1)c1c(Cl)cccc1Cl [3x, 2,6-Dichloro-N-(1H-indol-5-yl)benzamide] | – |
| 148 to 150 °C | 85.12 ± 0.22% | O=C(Nc1ccc2[nH]ccc2c1)c1cccc(C(F)(F)F)c1 [3u, N-(1H-indol-5-yl)-3-(trifluoromethyl)benzamide] | IC50 [2]: > 100 µM; Selectivity Index (SI) [1]: >83; IC50 [1]: 1.2 µM |
| – | 57.98 ± 0.07% | O=C(Nc1ccc2[nH]ccc2c1)c1ccc(Cl)cc1 [3p, 4-Chloro-N-(1H-indol-5-yl)benzamide] | – |
| 206 to 207 °C | 91.22 ± 0.11% | O=C(Nc1ccc2[nH]ccc2c1)c1ccc(C(F)(F)F)cc1 [3v, N-(1H-indol-5-yl)-4-(trifluoromethyl)benzamide] | IC50 [2]: > 100 µM; Selectivity Index (SI) [1]: >151; IC50 [1]: 0.66 µM |
| 195 to 196 °C | 63.23 ± 0.45% | O=C(Nc1ccc2[nH]ccc2c1)c1ccc(OC(F)(F)F)cc1 [3t, N-(1H-indol-5-yl)-4-(trifluoromethoxy)benzamide] | – |
| 199 to 201 °C | 72.63 ± 0.32% | O=C(Nc1ccc2[nH]ccc2c1)c1cc(Cl)cc(Cl)c1 [3w, 3,5-Dichloro-N-(1H-indol-5-yl)benzamide] | IC50 [2]: > 100 µM; Selectivity Index (SI) [1]: >41; IC50 [1]: 2.41 µM |
| 189 to 190 °C | 50.01 ± 0.04% | CC(C)(C)c1ccc(C(=O)Nc2ccc3[nH]ccc3c2)cc1 [3q, 4-(Tert-butyl)-N-(1H-indol-5-yl)benzamide] | – |
| 130 to 132 °C | 68.34 ± 0.25% | O=C(Nc1ccc2[nH]ccc2c1)c1cccc(OC(F)(F)F)c1 [3s, N-(1H-indol-5-yl)-3-(trifluoromethoxy)benzamide] | – |
